SMILES strings stand for the structures.

This note sets out measurements from patent publication US10787425B2, “Thiazolidinedione derivative and use thereof” (INDUSTRY-ACADEMIC COOPERATION FOUNDATION CHOSUN UNIVERSITY, priority 2016, dated 2020).

In one experiment the target is 15-PGDH (Homo sapiens (Human), UniProt P15428). As to the kind of experiment: 15-PGDH inhibitory activity (NADH at 340 nm). In kind it is biochemical. The settings on record: concentration inhibiting 50% of 15-PGDH activity; purified 15-PGDH, 21 μM PGE2, 0.25 mM NAD+. Summed up: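 GST-purified human 15-PGDH (E. coli BL-21 LysS, 10 μg) with 21 μM PGE2 and 0.25 mM NAD+ in 50 mM Tris-HCl pH 7.5, 0.1 mM DTT. Compound tested at 0.0001–64 μM; NADH formation read by absorbance at 340 nm against a standard curve.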

The subject of the next experiment is A549 cells. As to the kind of experiment: Measurement of PGE2 concentration in A549 cell medium (ELISA). Format: cell-based, human. The settings on record: for Increment %: PGE2 concentration versus PBS control, 5 μM, 12 hours; for PGE2 concentration: inhibitor 5 μM, medium collected after 12 hours, ELISA. Summed up:
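A549 cells in RPMI 1640 with 8% FBS, seeded at 5×10^5 cells/well and grown 24 h at 37° C, 5% CO2; at ~80% confluence treated with 15-PGDH inhibitor at 5 μM in PBS (PBS-only negative control). After 12 h, PGE2 in the medium was measured by ELISA against a standard curve.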

In the next experiment the test system is HaCaT cells. Kind of experiment: Wound treatment (scratch) assay in HaCaT cells. Format: cell-based, human. The settings on record: 48 hours. As to the method:
HaCaT cells subcultured for about one week in DMEM [containing+8% FBS, AA] medium were inoculated in a 6-well plate at 2×10^5 cells/mL ([…]). Then, the cells were cultured for about 24 hours until the cells reached 80% confluency. HaCaT cells are an adult human skin-derived and spontaneously […] aneuploid immortal keratinocyte cell line. After the culture, the cells were washed with 1×PBS buffer and the used medium was replaced with an FBS and antibiotic-free medium. Then, mitomycin was added thereto at a concentration of 30 μg/mL and the cells were cultured for 2 hours. Then, the cells were washed with 1×PBS buffer, and a cell monolayer on the bottom surface of each well was scratched by using a 200 μL pipette tip to harm the cells. Since some cells were washed away by the scratching, the plate was washed repeatedly with 1×PBS buffer and then, filled with DMEM medium containing FBS and AA, and photographed at the time of 0 hour.
The 15-PGDH inhibitor was then injected at a concentration of 5 μM or the indicated concentration. For comparison with the results, in the case of the negative control, nothing was added, and in the case of the positive control, TGF-β1 was injected at a concentration of 1 ng/mL and then, the cells were cultured for 48 hours. After 48 hours, the picture of the cells was taken again to confirm how much the cells were grown due to the drug effect.

The mark [1] stands for this setting: 5 μM, versus control (FIGS. 1 to 3).
Setting [2] is: 0.5 μM to 5 μM, versus control (FIGS. 4 to 6).

15-PGDH, sequence (P15428 whole entry): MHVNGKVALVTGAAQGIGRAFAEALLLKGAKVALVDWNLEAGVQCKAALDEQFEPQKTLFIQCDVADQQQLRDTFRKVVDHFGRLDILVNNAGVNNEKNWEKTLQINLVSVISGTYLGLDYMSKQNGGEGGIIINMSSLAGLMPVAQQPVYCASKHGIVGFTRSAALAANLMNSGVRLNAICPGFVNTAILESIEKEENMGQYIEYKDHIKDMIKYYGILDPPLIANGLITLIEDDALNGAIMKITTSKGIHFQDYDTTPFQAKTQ

Regarding `O=C1NC(=O)/C(=C/c2ccc(OC(=O)C3CC3)c(Cl)c2)S1` [Compound 1, (Z)-2-chloro-4-((2,4-dioxothiazolidin-5-ylidene)methyl)phenyl cyclopropanecarboxylate], on 15-PGDH, the IC50 stood at 2090 nM. In the experiment with A549 cells, the Increment % is listed as 3.47% and the PGE2 concentration amounted to 283.2688 pg/mL. The wound closure rate entry in the experiment with HaCaT cells (setting [1]) was “significantly higher wound closure rates than the control”.

As for `O=C(CCCc1ccccc1)Oc1ccc(/C=C2\SC(=O)NC2=O)cc1Cl` [Compound 14, (Z)-2-chloro-4-((2,4-dioxothiazolidin-5-ylidene)methyl)phenyl 4-phenylbutanoate], at 15-PGDH, the IC50 turned out to be 22 nM. In addition, in the experiment on A549 cells, the Increment % came out at 389.99% and the PGE2 concentration turned out to be 586.3975 pg/mL. Further, in the experiment on HaCaT cells (setting [1]), the wound closure rate entry is “significantly higher wound closure rates than the control”.

As to `CCOc1cc(/C=C2\SC(=O)NC2=O)ccc1OC(=O)CCCc1ccccc1` [Compound 59, (Z)-4-((2,4-dioxothiazolidin-5-ylidene)methyl)-2-ethoxyphenyl 4-phenylbutanoate], the IC50 at 15-PGDH was 43.9 nM. Also, in the experiment with A549 cells, the Increment % amounted to 579.34%. In the experiment on A549 cells, this compound registered a PGE2 concentration of 1081.055 pg/mL. Moreover, the wound closure rate result in the experiment with HaCaT cells (setting [2]) is recorded as “significantly high wound closure rate”; in the experiment on HaCaT cells (setting [1]), “significantly higher wound closure rates than the control”.

On 15-PGDH, `O=C(CCCc1ccccc1)Oc1cccc(/C=C2\SC(=O)NC2=O)c1Cl` [Compound 89, (Z)-2-chloro-3-((2,4-dioxothiazolidin-5-ylidene)methyl)phenyl 4-phenylbutanoate] had an IC50 of 25.1 nM. Moreover, the Increment % in the experiment with A549 cells turned out to be 398.2%. The PGE2 concentration in the experiment on A549 cells worked out at 1048.274 pg/mL. The figures for the wound closure rate result in the experiment on HaCaT cells (setting [2]) and in the experiment on HaCaT cells (setting [1]) were “significantly high wound closure rate” and “significantly higher wound closure rates than the control”, respectively.

For the compound `O=C(CCCCc1ccccc1)Oc1cccc(/C=C2\SC(=O)NC2=O)c1Cl` [Compound 90, (Z)-2-chloro-3-((2,4-dioxothiazolidin-5-ylidene)methyl)phenyl 5-phenylpentanoate], the IC50 against 15-PGDH was 46 nM. For the same compound, in the experiment on A549 cells, the Increment % was found to be 98.11% and the PGE2 concentration was found to be 416.8478 pg/mL.

In the case of `O=C1NC(=O)/C(=C/c2ccc(OC(=O)C3CC3)cc2Cl)S1` [Compound 91, (Z)-3-chloro-4-((2,4-dioxothiazolidin-5-ylidene)methyl)phenyl cyclopropanecarboxylate], at 15-PGDH, the IC50 came out at 1080 nM. Besides, in the experiment with A549 cells, the Increment % is recorded as −4.5498% and the PGE2 concentration was determined as 106.5773 pg/mL.

As to `O=C1NC(=O)/C(=C/c2ccc(OC(=O)C3CCC3)cc2Cl)S1` [Compound 92, (Z)-3-chloro-4-((2,4-dioxothiazolidin-5-ylidene)methyl)phenyl cyclobutanecarboxylate], it took 206 nM to reach half-maximal inhibition against 15-PGDH (IC50). In addition, in the experiment on A549 cells, the Increment % is −57.6754% and the PGE2 concentration stood at 47.26 pg/mL.

At 15-PGDH, `O=C1NC(=O)/C(=C/c2ccc(OC(=O)C3CCCC3)cc2Cl)S1` [Compound 93, (Z)-3-chloro-4-((2,4-dioxothiazolidin-5-ylidene)methyl)phenyl cyclopentanecarboxylate] yielded an IC50 of 71 nM. Besides, in the experiment with A549 cells, the Increment % is listed as 2.9785% and the PGE2 concentration was 114.9832 pg/mL.

Compound `O=C(CC1CCCC1)Oc1ccc(/C=C2\SC(=O)NC2=O)c(Cl)c1` [Compound 94, (Z)-3-chloro-4-((2,4-dioxothiazolidin-5-ylidene)methyl)phenyl 2-cyclopentylacetate] came in with a concentration for half-maximal inhibition (IC50) against 15-PGDH of 32.7 nM. Also, in the experiment on A549 cells, the Increment % worked out at 97.1474% and the PGE2 concentration came to 220.1299 pg/mL.

Consider `O=C1NC(=O)/C(=C/c2ccc(OC(=O)C3CCCCC3)cc2Cl)S1` [Compound 96, (Z)-3-chloro-4-((2,4-dioxothiazolidin-5-ylidene)methyl)phenyl cyclohexanecarboxylate], for which, on 15-PGDH, the IC50 was 26.8 nM. In the experiment on A549 cells, the Increment % was 8.8874% and the PGE2 concentration was determined as 121.5809 pg/mL.

On 15-PGDH, `O=C(CC1CCCCC1)Oc1ccc(/C=C2\SC(=O)NC2=O)c(Cl)c1` [Compound 97, (Z)-3-chloro-4-((2,4-dioxothiazolidin-5-ylidene)methyl)phenyl 2-cyclohexylacetate] had an IC50 of 27.7 nM. In the experiment on A549 cells, the Increment % is 8.1011% and the PGE2 concentration is 120.703 pg/mL.

In turn, `O=C(CCCCC1CCCCC1)Oc1ccc(/C=C2\SC(=O)NC2=O)c(Cl)c1` [Compound 100, (Z)-3-chloro-4-((2,4-dioxothiazolidin-5-ylidene)methyl)phenyl 5-cyclohexylpentanoate] registered an IC50 on 15-PGDH of 39.4 nM. In the experiment on A549 cells, the Increment % is −3.7411% and the PGE2 concentration is 107.4803 pg/mL.

The compound `O=C(O)c1ccccc1.O=C1NC(=O)/C(=C/c2ccc(OC(=O)c3ccccc3)cc2Cl)S1` [Compound 101, (Z)-3-chloro-4-((2,4-dioxothiazolidin-5-ylidene)methyl)phenyl benzoate] came in with a 50% inhibitory concentration (IC50) against 15-PGDH of 45.1 nM. In addition, in the experiment with A549 cells, the Increment % is 79.4871% and the PGE2 concentration is 200.4108 pg/mL.

On to `O=C(Cc1ccccc1)Oc1ccc(/C=C2\SC(=O)NC2=O)c(Cl)c1` [Compound 102, (Z)-3-chloro-4-((2,4-dioxothiazolidin-5-ylidene)methyl)phenyl 2-phenylacetate], for which inhibition against 15-PGDH was half-maximal at 75.3 nM (IC50). Besides, in the experiment with A549 cells, the Increment % amounted to 99.2022% and the PGE2 concentration was determined as 222.4242 pg/mL.

As for `O=C(CCc1ccccc1)Oc1ccc(/C=C2\SC(=O)NC2=O)c(Cl)c1` [Compound 103, (Z)-3-chloro-4-((2,4-dioxothiazolidin-5-ylidene)methyl)phenyl 3-phenylpropanoate], inhibition at 15-PGDH was half-maximal at 87.5 nM (IC50). Also, in the experiment with A549 cells, the Increment % amounted to 159.989% and the PGE2 concentration came to 290.2972 pg/mL.

In the case of `O=C(CCCc1ccccc1)Oc1ccc(/C=C2\SC(=O)NC2=O)c(Cl)c1` [Compound 104, (Z)-3-chloro-4-((2,4-dioxothiazolidin-5-ylidene)methyl)phenyl 4-phenylbutanoate], half-maximal inhibition on 15-PGDH (IC50) was put at 74.9 nM. For the same compound, in the experiment with A549 cells, the Increment % turned out to be 213.4577% and the PGE2 concentration came out at 349.9990 pg/mL.

Consider `O=C(CCCCc1ccccc1)Oc1ccc(/C=C2\SC(=O)NC2=O)c(Cl)c1` [Compound 105, (Z)-3-chloro-4-((2,4-dioxothiazolidin-5-ylidene)methyl)phenyl 5-phenylpentanoate], for which the IC50 on 15-PGDH was determined as 130 nM. Also, in the experiment with A549 cells, the Increment % stood at 89.4598% and the PGE2 concentration came to 211.5461 pg/mL.

The term IC50 denotes the concentration needed to halve the response being measured. Low readings indicate higher potency, high ones lower potency.
